Columns and labels:
[1] = test system: A549 lung cancer cell line; assay: MTT cellular viability assay, A549; format: cell-based; details: 72 hours, ± standard deviation
Method: (§1) Cell lines were obtained from American Type Culture Collection (ATCC, Manassas, VA). […] Caco-2 (ATCC: HTB-37) colorectal cancer was grown in EMEM with 20% FBS and 1% penicillin/streptomycin. All cell lines were incubated at 37°C in 5% CO2 with passaging every 4–7 days. Cell culture media and supplements were obtained from ATCC, Atlanta Biologicals (Flowery Branch, GA), Mediatech (Tewksbury, MA), Fisher Scientific (Waltham, MA), Gibco (Gaithersburg, MD) and Sigma-Aldrich.
(§2) The MTT (3-(4,5-dimethylthiazol-2-yl)-2,5-diphenyltetrazolium bromide) cellular viability assay was performed in all three cancer cell lines and the non-cancer cell line. Following a protocol adapted from, cells were seeded at 5,000 cells per well in 96-well plates and incubated at 37°C in 5% CO2 in F-12K Medium or EMEM with FBS supplementation and 1% penicillin/streptomycin for 24 hours. Then, wells were treated in replicates of six according to a concentration series (500, 50, 5, 0.5, 0.05 μM) of specific platinum complexes for 72 hours. A negative control (media only), positive control (Triton X-100) and series of blanks were simultaneously performed. The MTT assay was run for 2 hours, then well contents were rapidly evacuated out and all wells were treated with MTT solubilization solution [10% Triton X-100 in acidic (0.1N HCl) isopropanol] for 15 minutes before the plates were read using a BioTek Synergy HT microplate plate reader (570 nm and 690 nm absorbance wavelengths). Reagents, cell culture media and supplements were obtained from ATCC, Atlanta Biologicals, Mediatech, Fisher Scientific, Gibco and Sigma-Aldrich.
(§3) GraphPad Prism v6 (La Jolla, CA) was used for all statistical analysis. Nuclear fraction platinum uptake as a total percent of combined nuclear and cytosolic uptake was analyzed using a one-way ANOVA (Brown-Forsyth test; p ≤ 0.05). IC50 values were calculated in Prism using the sigmoidal, 4PL, x is log(concentration) analysis feature or were calculated from Prism derived values using the equation y = mx + b. MTT assay standard deviation values were calculated using ED50plus v1.0 online software. AEP threshold data were analyzed by two-way ANOVA (Dunnett’s multiple comparisons test; p ≤ 0.05) and hair cell quantification data by two-way ANOVA (Tukey’s multiple comparisons test; p ≤ 0.05). AEP temporary threshold shifts (TTS) were calculated by subtracting the mean vehicle threshold for each frequency from each treatment threshold. TTS data were averaged across frequencies for each treatment and were analyzed by one-way ANOVA (Tukey’s multiple comparisons test; p ≤ 0.05).

[2] = test system: Caco-2 colorectal cancer cell line; assay: MTT cellular viability assay, Caco2; format: cell-based; details: 72 hours, ± standard deviation
Method: as §1, §2, §3

[3] = test system: zebrafish hearing thresholds; assay: Auditory evoked potential (AEP) testing in zebrafish inner ear model; format: in vivo, Danio rerio; details: 25 mg/kg i.p.; for mean (± S.E.) temporary threshold shift (TTS), averaged across frequencies: 48 hours, vehicle threshold subtracted; for AEP hearing threshold, significance of pairwise comparison against cisplatin / AEP hearing threshold, significance of pairwise comparison against vehicle: 48 h
Method: Zebrafish (Danio rerio) were purchased from a commercial supplier (Segrest Farms, Gibsonton, FL) and maintained in the animal facility of Western Kentucky University according to a protocol approved by the Institutional Animal Care and Use Committee. All zebrafish used in this study were a mix of male and female adult animals at least 6 months of age and were maintained according to standard methods.
After injection, fish were returned to holding tanks for either 24 or 48 hours and then subjected to hearing tests followed by hair cell quantification analysis.
Auditory evoked potential (AEP) testing was performed on individual fish according to standard protocols. […] After harness placement was complete, three 27 gauge stainless steel electrodes (Rochester Electro-Medical, Inc., Lutz, FL) were inserted approximately 2 mm subdermally to record AEPs. A reference electrode was inserted into the medial dorsal surface of the head, a recording electrode directly over the brainstem and a ground electrode in the tail musculature. Sound stimuli (tone pips) were presented to each fish at 8 frequencies (100, 250, 400, 600, 800, 1000, 1500 and 3000 Hz) and AEP waveforms were collected using a TDT System III physiology apparatus (Tucker-Davis Technologies Inc., Alachua, FL) running SigGen and BioSig software. Auditory stimuli were passed through a P1000 power amplifier (Hafler, Port Coquitlam, BC) and presented with a University Sound UW-30 underwater speaker (Electro-Voice, Fairport, NY). Sound pressure levels were confirmed using a Type 10CT hydrophone (G.R.A.S., Holte, Denmark) placed adjacent to the mesh harness. Auditory thresholds were determined in 5 dB increments by visual inspection of AEP waveforms.
as §3

[4] = test system: A549, Caco2, HTB16 and IMR90 cell lines; assay: MTT cellular viability assay, comparison over all cell lines; format: cell-based; details: in our cell lines (Table 2)
Method: Cell lines were obtained from American Type Culture Collection (ATCC, Manassas, VA). The A549 (ATCC: CCL-185) lung cancer cell line was grown in F12K media with 10% FBS and 1% penicillin/streptomycin supplementation. Both the U-138 MG (ATCC: HTB-16) glioblastoma cancer cell line and IMR-90 (ATCC: CCL-186) lung fibroblast control cell line were grown in Eagle’s Minimum Essential Medium (EMEM) with supplementation as in A549. Caco-2 (ATCC: HTB-37) colorectal cancer was grown in EMEM with 20% FBS and 1% penicillin/streptomycin. All cell lines were incubated at 37°C in 5% CO2 with passaging every 4–7 days. […]
The MTT (3-(4,5-dimethylthiazol-2-yl)-2,5-diphenyltetrazolium bromide) cellular viability assay was performed in all three cancer cell lines and the non-cancer cell line. […] The MTT assay was run for 2 hours, then well contents were rapidly evacuated out and all wells were treated with MTT solubilization solution [10% Triton X-100 in acidic (0.1N HCl) isopropanol] for 15 minutes before the plates were read using a BioTek Synergy HT microplate plate reader (570 nm and 690 nm absorbance wavelengths). […]
GraphPad Prism v6 (La Jolla, CA) was used for all statistical analysis. Nuclear fraction platinum uptake as a total percent of combined nuclear and cytosolic uptake was analyzed using a one-way ANOVA (Brown-Forsyth test; p ≤ 0.05). […]

Molecule | IC50 [2] [µM] | mean (± S.E.) temporary threshold shift (TTS), averaged across frequencies [3] [dB] | AEP hearing threshold, significance of pairwise comparison against cisplatin ([3]; 100 Hz) | AEP hearing threshold, significance of pairwise comparison against vehicle ([3]; 100 Hz) | AEP hearing threshold, significance of pairwise comparison against cisplatin ([3]; 250 Hz) | AEP hearing threshold, significance of pairwise comparison against vehicle ([3]; 250 Hz) | AEP hearing threshold, significance of pairwise comparison against cisplatin ([3]; 400 Hz) | AEP hearing threshold, significance of pairwise comparison against vehicle ([3]; 400 Hz) | AEP hearing threshold, significance of pairwise comparison against cisplatin ([3]; 600 Hz) | AEP hearing threshold, significance of pairwise comparison against vehicle ([3]; 600 Hz) | AEP hearing threshold, significance of pairwise comparison against cisplatin ([3]; 800 Hz) | AEP hearing threshold, significance of pairwise comparison against vehicle ([3]; 800 Hz) | AEP hearing threshold, significance of pairwise comparison against cisplatin ([3]; 1000 Hz) | AEP hearing threshold, significance of pairwise comparison against vehicle ([3]; 1000 Hz) | AEP hearing threshold, significance of pairwise comparison against cisplatin ([3]; 1500 Hz) | AEP hearing threshold, significance of pairwise comparison against vehicle ([3]; 1500 Hz) | AEP hearing threshold, significance of pairwise comparison against cisplatin ([3]; 3000 Hz) | AEP hearing threshold, significance of pairwise comparison against vehicle ([3]; 3000 Hz) | also measured
[Cl][Pt-2]12[NH2+]CC[NH+]1CC[NH2+]2 (stereo not drawn) [[Pt(dien)Cl]^+, Pt(diethylenetriamine)Cl] | 41.5 ± 0.72 | 12.0 ± 3.0 | ns (ns, p > 0.05) | * (* p ≤ 0.05) | ns (ns, p > 0.05) | ns (ns, p > 0.05) | ns (ns, p > 0.05) | **** (**** p ≤ 0.0001) | ns (ns, p > 0.05) | **** (**** p ≤ 0.0001) | ns (ns, p > 0.05) | **** (**** p ≤ 0.0001) | ns (ns, p > 0.05) | **** (**** p ≤ 0.0001) | ns (ns, p > 0.05) | ns (ns, p > 0.05) | ns (ns, p > 0.05) | * (* p ≤ 0.05) | IC50 [1]: 198 ± 4.8 µM
phenanthriplatin | 1.6 ± 1.22 | 13.3 ± 2.9 | * (* p ≤ 0.05) | *** (*** p ≤ 0.001) | ns (ns, p > 0.05) | ns (ns, p > 0.05) | ns (ns, p > 0.05) | *** (*** p ≤ 0.001) | ns (ns, p > 0.05) | ** (** p ≤ 0.01) | * (* p ≤ 0.05) | **** (**** p ≤ 0.0001) | * (* p ≤ 0.05) | **** (**** p ≤ 0.0001) | ns (ns, p > 0.05) | ns (ns, p > 0.05) | ** (** p ≤ 0.01) | **** (**** p ≤ 0.0001) | factor by which cellular viability is reduced more than by pyriplatin [4]: at least 10; mean (± S.E.) temporary threshold shift (TTS), averaged across frequencies ([3]; listed as phenanthriplatin): 13 dB
